One data set deals with Aphidius rhopalosiphi. In words: LR50; higher = less toxic. The conditions noted are these: not reported; mortality.
For the next data set, the system named is Apis mellifera. The conditions noted are these: acute; oral; unspecified; mortality.
A further data set concerns Tagia sp. The conditions noted are these: acute; duration: 14 days; mortality.
The next data set deals with Colinus virginianus. The conditions noted are these: acute; oral; mortality.
A further data set relates to Mus musculus. To be noted: oral.
For a further data set, the system named is Daphnia magna. The conditions noted are these: chronic/long-term; duration: 21 days; reproduction.
For another data set, the system named is Canidae. The conditions noted are these: oral, Dog Other, organ weight.
The next data set concerns Cyprinus carpio. The conditions noted are these: acute; duration: 96 hours; mortality.
[1] abbreviates: reproduction developmental, reproduction.

Experimental findings from EPA's ToxValDB 9.5 (doi:10.2903/j.efsa.2010.1913) are described below.

Bounds are passed on as bounds.

Usually NOAEL stands for the highest tested level that showed no adverse finding. In the data set with Aphidius rhopalosiphi, `CCNC(=O)[C@@H](C)OC(=O)Nc1ccccc1` [Carbetamide] displayed an LR50 of more than 3020 g/ha. Moreover, the LD50 in the data set with Apis mellifera was more than 63.2 µg/piece; in the data set with Colinus virginianus, more than 2000 mg/kg-day; in the data set on Mus musculus (acute, mortality), 1720 mg/kg-day; in the data set on Rattus norvegicus (acute, oral, mortality) it was more than 2000 mg/kg-day. For the same compound, the LC50 in the data set on Tagia sp. is 660 mg/kg; in the data set with Coturnix japonica (acute, oral, diet, mortality), more than 1040 mg/kg-day; in the data set on Oncorhynchus mykiss (acute, duration: 96 hours, mortality), more than 100 mg/L; in the data set on Cyprinus carpio it was more than 100 mg/L. The compound further returned an NOEL in the data set on Mus musculus (chronic, duration: 104 weeks, histopathology: neoplastic) of 21 mg/kg-day. Also, the NOEC in the data set with Daphnia magna is 1 mg/L; in the data set with Coturnix japonica (setting [1]), 169 mg/kg-day; in the data set on Oncorhynchus mykiss (chronic/long-term, duration: 21 days, growth) it was more than 100 mg/L. In addition, the NOAEL with Canidae (chronic, duration: 1 years) stood at 30 mg/kg-day; with Canidae (subchronic, duration: 90 days), 30 mg/kg-day; with Rattus norvegicus (chronic, duration: 2 years, oral, histopathology: nonneoplastic), 6 mg/kg-day; with Rattus norvegicus (setting [1]), 208 mg/kg-day; with Rattus norvegicus (subchronic, duration: 90 days, oral, histopathology: nonneoplastic) it was 12.5 mg/kg-day.
